The values below come from patent US12234288B2, “Immunogenic arginase 2 polypeptides” (IO Biotech ApS, priority 2018, dated 2025).

For assay [1], the system named is PBMCs from healthy donors and cancer patients. In words: IFNγ ELISPOT of PBMCs pre-stimulated one week in vitro with peptide and low-dose IL-2. Format: cell-based, human. The following applies: for IFNy ELISPOT response: validation of hotspot region peptides, PBMCs from two healthy donors, FIG. 4. On the procedure:
For in vitro ELISPOT, PBMCs from cancer patients and healthy donors were pulsed with 20 μM of […] (or with no peptide as a control) and 120 U/ml IL-2 in 24-well plates for 7 days before being used in an ELISPOT assay. The cells were placed in 96-well nitrocellulose ELISPOT plates (MultiScreen MAIP N45; Millipore) pre-coated with IFNγ capture antibody (Mabtech). Arginase peptides added to a final concentration of 5 μM and plates incubated at 37° C. for 14-16 hours. After the incubation the cells were washed off and secondary biotinylated Ab (Mabtech, cat. 3420-{6-1000) was added for 2 hours at room temperature. Unbound secondary antibody was washed off and streptavidin conjugated alkaline phosphatase (AP) (Mabtech, cat. 3310-10) was added for 1 hour at room temperature. Unbound conjugated enzyme was washed off and the assay was developed by adding BCIP/NBT substrate (Mabtech, cat. 3650-10). Developed ELISPOT plates were analyzed on CTL ImmunoSpot S6 Ultimate-V analyzer using Immunospot software v5.1. Responses were reported as the difference between average numbers of spots in wells stimulated with arginase2 and wells without added peptide.
To test whether these peptides could be used to identify Arginase2 responses, PBMCs from 12 healthy donors and one cancer patients were screened for responses in IFNγ ELISPOT. PBMCs were stimulated with Arginase2 peptides and low dose IL-2 for 1 week prior to ELISPOT.
The entire arginase2 protein sequence was divided into overlapping 20-amino-acid-long peptides (with a final peptide of 24 amino acids), generating a library of 34 peptides covering the whole sequence (SEQ ID NOs 1-34)). Each peptide in the library overlapped with the first 10 amino acids of the following peptide. Using this arginase2 peptide library and the IFNγ ELISPOT assay, we next screened PBMCs from 6 healthy donors for spontaneous responses. The PBMCs were stimulated for one week with a pool of 3-4 adjacent 20-mer arginase2 library peptides and low-dose IL-2 (120 U/mL). They were then set up for an IFNγ ELISPOT assay to screen for responses against each 20-mer peptide separately.
PBMCs from two healthy donors were stimulated for one week with a single peptide and low-dose IL-2 (120 U/mL) before IFNy ELISPOTassay to validate the responses observed in the library screen.
PBMCs from […] were stimulated for one week with a single peptide and low-dose IL-2 (120 U/mL) before IFNy ELISPOTassay to validate the responses observed in the library screen. ARG2_1, ARG2_5, ARG2_13, ARG2_18 and ARG2_22 were tested in this validation.
ARG2_1 was used to screen for responses in 8 melanoma patients (AA07-AA31), 4 prostate cancer patients (UR07-27) and 13 healthy donors. PBMCs from each were stimulated for one week with a single peptide and low-dose IL-2 (120 U/mL) before IFNy ELISPOT assay.
PBMCs from healthy donors or cancer patients were stimulated with 10 μM of ARG2-derived peptides in vitro to enhance assay sensitivity. On day 2, IL-2 was added to a total of 120 U/ml IL-2 (Novartis). After 7 days, 4-6×10^5 PBMCs were placed at the bottom of an ELISPOT plate pre-coated with IFNy capture antibody (Mabtech). PBMCs from each donor or patient were set up in triplicates or quadruplicates for peptide (5 μM ARG2-derived peptide) and control stimulations. Cells were incubated in ELISPOT plates in the presence of an antigen for 14-16 hrs after which they were washed off and secondary biotinylated antibody (Mabtech) was added. After two hour incubation the secondary antibody was washed off before addition of streptavidin conjugated alkaline phosphatase (Mabtech) for 1 hr. Next, unbound enzyme was washed off and the assay was developed by adding BCIP/NBT subtrate (Mabtech). Developed ELISPOT plates were analyzed on CTL Immunospot S6 Ultimate-V analyzer with ImmunoSpot software, version 5.1. […]

The subject of assay [2] is THP-1 cells. In words: ARG1/ARG2 expression by RT-qPCR in THP-1 cells. The format is cell-based, human. The following applies: 48 hr stimulation, FIG. 17C/17H. Here is the method: (§1) Cytokine stimulation with IL-4 (400 U/ml), IL-13 (50 ng/ml), IFNy (100 U/ml) or cytokine cocktail (400 U/ml IL-4, 1000 U/ml GM-CSF and 1000 U/ml TNFa) was done by seeding of 0.5-0.75×10^6 cell/mL medium supplemented with the respective cytokines and 48 hrs of incubation before cells were harvested for various experiments. All cytokines are from Trichem.
(§2) Total RNA was reverse transcribed using the High Capacity cDNA Reverse Transcription Kit (Applied Biosystems). For each reaction, 1000 ng RNA was reverse transcribed. For RT-qPCR, the cDNA was diluted 1:5 and subjected to RT-qPCR analysis using the TaqMan Gene Expression Assay on the Roche Lightcycler 480 Instrument. RT-qPCRs were run in quadruplicates and data was analyzed using the ddCT-method with normalization to expression level of the house keeping gene RPLPO and control sample. For low concentration samples that were not amplified, Ct was set to 40. No-reverse transcriptase controls (cDNA reactions setup without reverse transcriptase) served as controls of specific amplification. A list of primers used in this study is found below.
A set of three siRNA duplexes targeting ARG2 was obtained from Ambion (ARG2 Silencer Select Validated siRNA, ID s1571, s1572, s1573). siRNAs were suspended in nuclease free water to 0.1 nmol stock solutions and stored at −80° C. For ARG2 silencing experiments, THP-1 cells were prepared for electroporation as described above and 10 μl of a working solution of 0.02 nmol siRNA solution was added of each of the three siRNA before transfection as previously described. Immediately after transfection, cells were transferred to pre-warmed medium and incubated for 1 hr. Transfected cells were then split in two and to half of the cells cytokine cocktail (400 U/ml IL-4, 1000 U/ml GM-CSF and 1000 U/ml TNFa) was added. Cells were incubated in medium or medium containing cytokine cocktail for 48 hrs before they were set up in intracellular cytokine staining assay. Cells were pelleted for RNA after 48 hrs for accession of knock down efficiency by RT-qPCR.
For orientation: In qPCR the cycle at which signal appears reflects the starting amount.

The next assay relates to C57BL/6 mice. Kind of assay: Peptide vaccination of mice followed by murine IFNy ELISPOT of spleen cells. To be noted: for mIFNy ELISPOT response to the peptide in mice vaccinated with mArg2 P5: FIG. 13; for mIFNy ELISPOT response after vaccination: three C57 mice per peptide vaccinated s.c., 7 days, FIG. 12 / FIG. 20A. The format is in vivo, mouse. An excerpt: 3 mice in each group are vaccinated s.c. with one of the six peptides. 7 days after, the mice are terminated, spleens are homogenised and PBMC are used for mIFNy ELISPOT.
These peptides are used for a vaccination screen (see experimental schematic in FIG. 11), where three C57 mice are vaccinated subcutaneously with one of the 6 peptides. One week later, the mice are sacrificed and the spleens homogenized to obtain PBMC. These are used to set up IFNy ELISPOT to screen for responses against both the peptide used for vaccination and the other predicted epitope peptides with overlapping sequences.
(§3) Dissolved peptides were subsequently emulsified with Montanide™ adjuvant (50ul/mouse) (Seppic Inc.) for an optimal dose of 100 ug total peptide given in a total volume of 100 ul. The emulsified peptide vaccination was injected subcutaneously at the base or the tail or the flank of 12-16 week old C57BL/6 mice with a 27G needle. Control mice were given water and Montanide™ emulsification in a total volume of 100 ul. For therapeutic vaccine studies on tumor inoculated mice, vaccinations were given at day 0 and 7 after tumor inoculation at the flank of the tail and the left flank, respectively. For epitope screening- and validation experiments, a single dose of vaccine was given to mice at the right flank. One week later, mice were sacrificed, and spleens were recovered. Spleens were smashed through a […] filter and red blood cells were lysed using Red Blood Cell Lysis Buffer (Qiagen). Cells were washed 4 times and counted before setup for murine IFNy ELISPOT assay with 8*10^6 cells pr. well.

The subject of assay [3] is Lewis Lung (LL2) tumor cells. Kind of assay: Therapeutic vaccination study in Lewis Lung (LL2) tumor inoculated mice. Format: in vivo. To be noted: LL2 tumors in C57BL/6 mice, vaccinations day 0 and day 7, compared to control, FIG. 20E-G. Here is the method: LL2 cells (5*10^5) were resuspended in 100 ul of serum free medium and were injected subcutaneously in the right flank of female C57BL/6 mice. Tumor volumes were measured by digital caliper and the endpoint of tumor study was a tumor reaching the threshold size of 800 mm^3 or due to the formation of ulcers on the tumor.
as §3, with “well. […]” for “well.”

Another assay concerns MONO-MAC-1 cells. Kind of assay: ARG2 expression by RT-qPCR in MONO-MAC-1 cells. Format: cell-based, human. To be noted: 48 hrs incubation, FIG. 18A/B. On the procedure:
as §1, §2

For assay [4], the system named is THP-1 cells. Kind of assay: Flow cytometric analysis of HLA-DR expression in THP-1 cells. The following applies: 48 hrs stimulation, data not shown. Format: cell-based, human. Here is the method:
HLA-DR expression analysis was performed on cells stimulated for 48 hrs with mock (no cytokines), IFNy (100U/ml) or cytokine cocktail (400U/m1 IL-4, 1000 U/ml GM-CSF and 1000 U/ml TNFa). Briefly, cells were washed and stained with 7-AAD (cat: 51-68981E, BD Bioscience) and FITC-conjugated mouse anti-human HLA-DR, DP, DQ (cat: 5555581, BD Bioscience) or FITC-conjugated mouse IgG1 K isotype ctrl (FC) (cat: 400109, BD Bioscience) for 30 minutes at 4° C. Excess antibody was washed off before cells were analyzed on FACSCanto™ II instrument. HLA-DR expression levels is given as the difference in MFI between MHC Class II stained live cells and isotype control stained live cells.
A general note: Flow cytometry measures light scatter and fluorescence of single cells or particles in a stream.

For the molecule “FSWIKPCISSASIVYIGLRD (listed as Homo sapiens) [ARG2_18, polypeptide derived from human Arginase2, aa181-200]”, the “IFNy ELISPOT response” value in assay [1] is “strongest and most consistent responses”.
For “IL-13: cytokine from Trichem, used at 50 ng/ml [reference compound]”, the “induction of ARG2 expression” value in the assay with THP-1 cells [2] is reported as “did not have much effect”.
“LSPPNIVYI (listed as Mus musculus) [mArg2 P5, polypeptide derived from murine Arginase2, aa188-196]”: the “mIFNy ELISPOT response to the peptide in mice vaccinated with mArg2 P5” value (from here on “mIFNy ELISPOT response to the peptide”) in the assay with C57BL/6 mice (listed as mArg2_188-196) is “strong mIFNy responses”. Besides, in the assay on C57BL/6 mice, the “mIFNy ELISPOT response after vaccination” value was “strongest and most prominent responses”.
With “NYDIQYFSMRDIDRLGIQKV (listed as Homo sapiens) [ARG2_21, polypeptide derived from human Arginase2, aa211-230]”, the “IFNy ELISPOT response” value in assay [1] is given as “stronger response”.
In the case of “PNIVYIGL (listed as Mus musculus) [mArg2 P3, polypeptide derived from murine Arginase2, aa191-198]”, in the assay with C57BL/6 mice, the “mIFNy ELISPOT response to the peptide” value is “no response or only weak responses”.
For the molecule “SASIVYIGLRDVDPPEHFIL (listed as Homo sapiens) [ARG2-E18, polypeptide derived from human Arginase2, aa190-209]”, the “IFNγ ELISPOT response” value in assay [1] (hotspot peptide screen, PBMCs from 12 healthy donors and one cancer patient, FIG. 2) was “highest and most consistent response”.
Consider “WIKPCLSPPNIVYIGL (listed as Mus musculus) [mArg2 P4, polypeptide derived from murine Arginase2, aa182-197]”, for which the “mIFNy ELISPOT response to the peptide” value in the assay with C57BL/6 mice (listed as mArg2_182-197) is listed as “strong mIFNy responses”. Moreover, the “mIFNy ELISPOT response after vaccination” value with C57BL/6 mice was “Strong immune responses”. Moreover, the tumor growth entry in assay [3] is “decreased tumor growth”.

B1: IL-4: cytokine from Trichem, used at 400 U/ml (protein, UniProt P05112 25-153, looked up)
Interleukin-4: HKCDITLQEIIKTLNSLTEQKTLCTELTVTDIFAASKNTTEKETFCRAATVLRQFYSHHEKDTRCLGATAQQFHRHKQLIRFLKRLDRNLWGLAGLNSCPVKEANQSTLENFLERLKTIMREKYSKCSS
As to B1, the “induction of ARG2 expression” value in the assay on THP-1 cells [2] is reported as “did not have much effect”.

B2: IFNy: cytokine from Trichem, used at 100 U/ml (protein, UniProt P01579 24-161, looked up)
Interferon gamma: QDPYVKEAENLKKYFNAGHSDVADNGTLFLGILKNWKEESDRKIMQSQIVSFYFKLFKNFKDDQSIQKSVETIKEDMNVKFFNSNKKKRDDFEKLTNYSVTDLNVQRKAIHELIQVMAELSPAAKTGKRKRSQMLFRG
Consider B2, for which, in the assay on THP-1 cells [2], the “induction of ARG2 expression” value is given as “not ARG2 expression”. In the assay with MONO-MAC-1 cells, the ARG2 expression result is on record as “did not upregulate ARG2 expression”. Moreover, in the assay on THP-1 cells [4], the HLA-DR expression entry was “increase HLA-DR expression”.
